Results published in US20260014285A1, “POLYPEPTIDE COMPOUND, AND COMPLEX AND USE THEREOF” (HANGZHOU HEALTHYTIDE BIOTECHNOLOGY CO., LTD., priority 2022, published 2026).
Non-standard residues stand in square brackets, D forms with d. Residues, ends and D or L forms follow the SMILES beside them. ξ: configuration not given here. *: point of attachment. DOTA = O=C(O)CN1CCN(CC(=O)O)CCN(CC(=O)*)CCN(CC(=O)O)CC1; NOTA = O=C(O)CN1CCN(CC(=O)O)CCN(CC(=O)*)CC1; PEG4 = NCCOCCOCCOCCOCCC(=O)O; ξIle = CC[C@H](C)C(N)C(=O)O; Aib = CC(C)(N)C(=O)O; AEA = NCCOCC(=O)O

What was measured:
integrin α5β1 = integrin α5β1 (Homo sapiens, UniProt P05556+P08648); assay: Target affinity test by surface plasmon resonance (SPR), integrin α5β1; format: binding; conditions: for Kd: SPR (Biacore T200), CM5 chip, 25° C., KD=Kd/Ka; for affinity constant (KD) to integrin α5β1, in words: SPR
integrin α5β1, sequence (P08648 42-995 limits assumed): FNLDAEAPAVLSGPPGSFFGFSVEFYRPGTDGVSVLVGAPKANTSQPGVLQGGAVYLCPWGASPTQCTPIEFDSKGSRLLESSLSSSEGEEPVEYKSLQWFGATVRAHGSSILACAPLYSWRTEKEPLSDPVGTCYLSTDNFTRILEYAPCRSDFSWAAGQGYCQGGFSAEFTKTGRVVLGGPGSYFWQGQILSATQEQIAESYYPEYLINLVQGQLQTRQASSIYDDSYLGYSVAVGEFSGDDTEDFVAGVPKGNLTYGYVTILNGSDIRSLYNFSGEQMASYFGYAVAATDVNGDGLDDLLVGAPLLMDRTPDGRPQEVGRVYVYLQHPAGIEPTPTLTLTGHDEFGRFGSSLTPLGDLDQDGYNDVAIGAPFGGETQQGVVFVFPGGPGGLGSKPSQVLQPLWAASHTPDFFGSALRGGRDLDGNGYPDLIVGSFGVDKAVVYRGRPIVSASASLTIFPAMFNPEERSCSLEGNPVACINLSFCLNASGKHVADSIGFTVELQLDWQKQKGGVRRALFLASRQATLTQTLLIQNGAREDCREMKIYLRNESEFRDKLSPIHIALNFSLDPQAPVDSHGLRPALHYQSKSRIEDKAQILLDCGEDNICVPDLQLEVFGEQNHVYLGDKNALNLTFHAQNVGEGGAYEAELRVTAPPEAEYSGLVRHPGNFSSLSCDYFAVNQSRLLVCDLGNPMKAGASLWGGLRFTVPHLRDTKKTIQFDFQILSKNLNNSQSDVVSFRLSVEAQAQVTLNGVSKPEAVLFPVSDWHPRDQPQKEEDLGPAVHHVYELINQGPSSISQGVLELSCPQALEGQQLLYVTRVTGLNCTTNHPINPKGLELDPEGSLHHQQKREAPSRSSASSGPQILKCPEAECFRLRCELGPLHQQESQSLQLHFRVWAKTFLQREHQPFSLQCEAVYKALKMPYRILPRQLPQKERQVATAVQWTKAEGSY
integrin α5β1, sequence (P05556 21-728 limits assumed): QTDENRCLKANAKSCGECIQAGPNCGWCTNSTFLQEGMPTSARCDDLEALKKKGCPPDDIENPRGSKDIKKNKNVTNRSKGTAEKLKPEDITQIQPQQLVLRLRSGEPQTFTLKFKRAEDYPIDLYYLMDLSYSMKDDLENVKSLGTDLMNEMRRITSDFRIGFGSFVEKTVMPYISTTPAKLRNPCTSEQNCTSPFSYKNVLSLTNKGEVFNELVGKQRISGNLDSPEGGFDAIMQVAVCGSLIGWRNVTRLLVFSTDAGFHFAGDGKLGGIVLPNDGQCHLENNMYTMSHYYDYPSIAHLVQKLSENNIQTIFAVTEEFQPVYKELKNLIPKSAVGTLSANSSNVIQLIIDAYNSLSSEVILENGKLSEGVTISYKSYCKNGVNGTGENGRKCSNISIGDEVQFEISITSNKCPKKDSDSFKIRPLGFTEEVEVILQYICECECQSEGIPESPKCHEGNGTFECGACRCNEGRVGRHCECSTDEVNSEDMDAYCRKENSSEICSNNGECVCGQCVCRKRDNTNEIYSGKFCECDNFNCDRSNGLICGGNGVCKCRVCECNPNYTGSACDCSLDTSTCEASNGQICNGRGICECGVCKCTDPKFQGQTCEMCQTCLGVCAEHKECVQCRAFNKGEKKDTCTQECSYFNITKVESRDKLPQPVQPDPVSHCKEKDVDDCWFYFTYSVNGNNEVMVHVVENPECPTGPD
Experimental: (§1) Surface plasmon resonance (SPR) technique was used to test the affinity of the compound in the examples to the target protein integrin α5β1. Specifically, the following operations were performed.
(§2) The affinity constants (KD) of the compounds to the target proteins integrin α5β1, αvβ3, and αvβ5 were calculated according to the formula of KD=Kd/Ka (the lower the value of KD, the higher the affinity of the compounds of the examples to the target protein integrin α5β1).

integrin αvβ3 = integrin αvβ3 (Homo sapiens, UniProt P05106+P06756); assay: Target affinity test by surface plasmon resonance (SPR), integrin αvβ3; format: binding
integrin αvβ3, sequence (P06756 31-992 limits assumed): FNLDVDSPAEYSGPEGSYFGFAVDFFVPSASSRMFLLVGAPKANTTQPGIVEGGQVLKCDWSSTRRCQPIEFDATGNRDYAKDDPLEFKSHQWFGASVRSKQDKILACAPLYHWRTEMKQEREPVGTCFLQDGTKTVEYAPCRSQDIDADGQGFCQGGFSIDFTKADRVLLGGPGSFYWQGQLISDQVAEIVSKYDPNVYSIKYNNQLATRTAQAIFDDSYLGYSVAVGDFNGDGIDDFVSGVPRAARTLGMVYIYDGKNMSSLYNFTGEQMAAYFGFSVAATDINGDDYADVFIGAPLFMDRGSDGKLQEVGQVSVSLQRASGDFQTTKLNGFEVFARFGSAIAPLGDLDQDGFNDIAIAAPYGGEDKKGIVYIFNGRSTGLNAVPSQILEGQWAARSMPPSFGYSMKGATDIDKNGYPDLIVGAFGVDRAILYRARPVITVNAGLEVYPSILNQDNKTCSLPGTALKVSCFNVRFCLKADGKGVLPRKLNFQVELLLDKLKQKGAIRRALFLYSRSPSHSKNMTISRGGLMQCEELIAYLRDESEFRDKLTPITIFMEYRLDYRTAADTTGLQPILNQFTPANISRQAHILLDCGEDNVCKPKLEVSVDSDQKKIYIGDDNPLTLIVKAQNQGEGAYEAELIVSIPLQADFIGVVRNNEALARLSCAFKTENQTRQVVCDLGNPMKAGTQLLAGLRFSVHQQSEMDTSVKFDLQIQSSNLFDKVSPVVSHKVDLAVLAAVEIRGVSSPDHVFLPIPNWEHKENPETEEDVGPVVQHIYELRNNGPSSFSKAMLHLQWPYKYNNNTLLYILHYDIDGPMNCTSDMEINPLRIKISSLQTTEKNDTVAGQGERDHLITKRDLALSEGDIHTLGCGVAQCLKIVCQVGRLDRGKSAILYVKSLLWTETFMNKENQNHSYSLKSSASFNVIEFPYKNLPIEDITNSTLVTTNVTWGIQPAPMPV
integrin αvβ3, sequence (P05106 27-718 limits assumed): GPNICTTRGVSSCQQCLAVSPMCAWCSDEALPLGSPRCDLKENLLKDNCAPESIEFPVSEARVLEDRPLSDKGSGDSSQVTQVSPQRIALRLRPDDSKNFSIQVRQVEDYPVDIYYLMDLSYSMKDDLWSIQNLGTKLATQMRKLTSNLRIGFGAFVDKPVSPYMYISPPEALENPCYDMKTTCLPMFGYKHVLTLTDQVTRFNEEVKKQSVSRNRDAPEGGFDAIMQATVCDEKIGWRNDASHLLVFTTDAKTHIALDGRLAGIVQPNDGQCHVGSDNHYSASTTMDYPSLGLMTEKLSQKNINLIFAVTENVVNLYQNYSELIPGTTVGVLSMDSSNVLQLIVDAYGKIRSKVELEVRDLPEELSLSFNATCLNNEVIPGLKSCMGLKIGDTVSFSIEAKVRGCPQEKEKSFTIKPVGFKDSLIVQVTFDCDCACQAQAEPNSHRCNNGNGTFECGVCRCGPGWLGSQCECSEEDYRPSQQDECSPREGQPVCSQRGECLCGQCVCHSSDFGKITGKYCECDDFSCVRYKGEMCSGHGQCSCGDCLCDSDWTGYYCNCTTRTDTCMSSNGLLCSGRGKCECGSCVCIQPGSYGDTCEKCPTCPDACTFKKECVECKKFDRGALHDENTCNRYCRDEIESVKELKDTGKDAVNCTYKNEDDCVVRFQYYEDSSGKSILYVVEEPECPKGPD
Experimental: as §1, §2

in vivo [1] = assay: in vivo; design: species or system mice; conditions: M-NSG, mouse, iv, 100 uCi, total radioactivity
Experimental: (§3) For example, labeling TM4 with radioactive ^68Ga: An aqueous solution of TM4 (DOTA-Asn-Asp-Val-Ile-Asn-OH) (20 μg) was added to the prepared ^68GaCl3 solution, and the pH was adjusted to 3-5 with aqueous sodium acetate and acetic acid. This system was reacted at 70-95° C. for 15 min, and then purified after the reaction was completed to obtain a labeled solution of ^68Ga-DOTA-Asn-Asp-Val-Ile-Asn-OH (^68Ga-TM4).
(§4) All compounds were labeled with ^68Ga in the same way as described above.
Approximately 100 μCi of ^68Ga injection was injected into the tail vein of M-NSG mice inoculated with H1975. […] Table 6 was obtained by image post-processing.

in vivo [2] = assay: in vivo; design: species or system mice; conditions: naked (nude), mouse, iv, 100 uCi, total radioactivity
Experimental: as §3, §4
Approximately 100 μCi of ^68Ga injection was injected into the tail vein of naked mice inoculated with MC38.

in vivo [3] = assay: in vivo; design: species or system mice; conditions: naked (nude), mouse, iv, 100 uCi, total radioactivity; remark: listed apart in the source
Experimental: as §3, §4
Approximately 100 μCi of ^68Ga injection was injected into the tail vein of naked mice inoculated with SKOV3.

Structure (SMILES) | Kd (integrin α5β1) [nM] | tissue uptake at 1 h (in vivo [1]; % ID/g Bone) [%ID/g] | tissue uptake at 1 h (in vivo [1]; % ID/g Brain) [%ID/g] | tissue uptake at 1 h (in vivo [1]; % ID/g Heart) [%ID/g] | tissue uptake at 1 h (in vivo [1]; % ID/g Intestine) [%ID/g] | tissue uptake at 1 h (in vivo [1]; % ID/g Kidney) [%ID/g] | tissue uptake at 1 h (in vivo [1]; % ID/g Liver) [%ID/g] | tissue uptake at 1 h (in vivo [1]; % ID/g Lung) [%ID/g] | tissue uptake at 1 h (in vivo [1]; % ID/g Muscle) [%ID/g] | tissue uptake at 1 h (in vivo [1]; % ID/g Tumor) [%ID/g] | further results
CC[C@H](C)[C@H](NC(=O)[C@@H](NC(=O)[C@H](CC(=O)O)NC(=O)[C@H](CC(N)=O)NC(=O)COCCNC(=O)CN1CCN(CC(=O)O)CCN(CC(=O)O)CCN(CC(=O)O)CC1)C(C)C)C(=O)N[C@@H](CC(N)=O)C(=O)O [TM13] ({DOTA-AEA}-NDVIN-OH) | 1450 | – | – | – | – | – | – | – | – | – | affinity constant (KD) to integrin αvβ3, in words (integrin αvβ3; SPR): nM level; Kd (integrin αvβ3; SPR (Biacore T200), CM5 chip, 25° C., KD=Kd/Ka): 0.646 nM
CC[C@H](C)C(NC(=O)[C@@H](NC(=O)[C@H](CC(=O)O)NC(=O)[C@H](CC(=O)O)NC(=O)CNC(=O)[C@H](CCCNC(=N)N)NC(=O)CN1CCN(CC(=O)O)CCN(CC(=O)O)CC1)C(C)C)C(=O)N[C@@H](CC(N)=O)C(=O)N[C@@H](Cc1ccccc1)C(=O)O (stereo partly shown) [TM3] ({NOTA}-RGDDV[ξIle]NF-OH) | 1.92 | – | – | – | – | – | – | – | – | – | affinity constant (KD) to integrin α5β1, in words (integrin α5β1): better than nM level
CC[C@H](C)[C@H](NC(=O)[C@@H](NC(=O)[C@H](CC(=O)O)NC(=O)[C@H](CC(N)=O)NC(=O)[C@H](CC(=O)O)NC(=O)CNC(=O)[C@H](CCCNC(=N)N)NC(=O)CN1CCN(CC(=O)O)CCN(CC(=O)O)CCN(CC(=O)O)CC1)C(C)C)C(=O)N[C@@H](CC(N)=O)C(=O)O [TM6] ({DOTA}-RGDNDVIN-OH) | 239 | – | – | – | – | – | – | – | – | – | –
CC[C@H](C)[C@H](NC(=O)[C@@H](NC(=O)[C@H](CC(=O)O)NC(=O)[C@H](CC(N)=O)NC(=O)CN1CCN(CC(=O)O)CCN(CC(=O)O)CCN(CC(=O)O)CC1)C(C)C)C(=O)N[C@@H](CC(N)=O)C(=O)O [^68Ga-TM4, ^68Ga-DOTA-Asn-Asp-Val-Ile-Asn-OH, metal not drawn] ({DOTA}-NDVIN-OH) | – | 0.3 | 0.5 | 0.96 | 0.56 | 4.8 | 0.79 | 0.47 | 0.36 | 1.4 | –
CC[C@H](C)[C@H](NC(=O)[C@@H](NC(=O)[C@H](CC(=O)O)NC(=O)[C@H](CC(N)=O)NC(=O)COCCNC(=O)CN1CCN(CC(=O)O)CCN(CC(=O)O)CCN(CC(=O)O)CC1)C(C)C)C(=O)N[C@@H](CC(N)=O)C(=O)O [^68Ga-TM13, metal not drawn] ({DOTA-AEA}-NDVIN-OH) | – | 0.13 | 0.2 | 0.49 | 0.6 | 3.9 | 0.5 | 0.32 | 0.23 | 0.97 | tissue uptake at 1 h (in vivo [2]; % ID/g Bladder): 7.3 %ID/g; tissue uptake at 1 h (in vivo [2]; % ID/g Bone): 0.05 %ID/g; tissue uptake at 1 h (in vivo [2]; % ID/g Brain): 0.09 %ID/g; tissue uptake at 1 h (in vivo [2]; % ID/g Heart): 0.11 %ID/g; tissue uptake at 1 h (in vivo [2]; % ID/g Intestine): 0.2 %ID/g; tissue uptake at 1 h (in vivo [2]; % ID/g Kidney): 1.6 %ID/g; tissue uptake at 1 h (in vivo [2]; % ID/g Liver): 0.16 %ID/g; tissue uptake at 1 h (in vivo [2]; % ID/g Lung): 0.08 %ID/g; tissue uptake at 1 h (in vivo [2]; % ID/g Muscle): 0.05 %ID/g; tissue uptake at 1 h (in vivo [2]; % ID/g Tumor): 0.2 %ID/g; tissue uptake at 1 h (in vivo [3]; % ID/g Bladder): 15.6 %ID/g; tissue uptake at 1 h (in vivo [3]; % ID/g Bone): 0.08 %ID/g; tissue uptake at 1 h (in vivo [3]; % ID/g Brain): 0.09 %ID/g; tissue uptake at 1 h (in vivo [3]; % ID/g Heart): 0.17 %ID/g; tissue uptake at 1 h (in vivo [3]; % ID/g Intestine): 0.85 %ID/g; tissue uptake at 1 h (in vivo [3]; % ID/g Kidney): 1.4 %ID/g; tissue uptake at 1 h (in vivo [3]; % ID/g Liver): 0.3 %ID/g; tissue uptake at 1 h (in vivo [3]; % ID/g Lung): 0.12 %ID/g; tissue uptake at 1 h (in vivo [3]; % ID/g Muscle): 0.08 %ID/g; tissue uptake at 1 h (in vivo [3]; % ID/g Tumor): 0.49 %ID/g
CC[C@H](C)[C@H](NC(=O)[C@@H](NC(=O)[C@H](CC(=O)O)NC(=O)[C@H](CC(N)=O)NC(=O)CCOCCOCCOCCOCCNC(=O)CN1CCN(CC(=O)O)CCN(CC(=O)O)CCN(CC(=O)O)CC1)C(C)C)C(=O)N[C@@H](CC(N)=O)C(=O)O [TM5] ({DOTA-PEG4}-NDVIN-OH) | 2.77 | – | – | – | – | – | – | – | – | – | affinity constant (KD) to integrin α5β1, in words (integrin α5β1): better than nM level
CC[C@H](C)[C@H](NC(=O)C(C)(C)NC(=O)[C@H](CC(=O)O)NC(=O)[C@H](CC(N)=O)NC(=O)CN1CCN(CC(=O)O)CCN(CC(=O)O)CCN(CC(=O)O)CC1)C(=O)N[C@@H](CC(N)=O)C(=O)O [^68Ga-TM11, metal not drawn] ({DOTA}-ND[Aib]IN-OH) | – | 0.27 | 0.21 | 0.53 | 0.5 | 4 | 0.43 | 0.31 | 0.31 | 0.94 | tissue uptake at 1 h (in vivo [2]; % ID/g Bladder): 18.9 %ID/g; tissue uptake at 1 h (in vivo [2]; % ID/g Bone): 0.08 %ID/g; tissue uptake at 1 h (in vivo [2]; % ID/g Brain): 0.18 %ID/g; tissue uptake at 1 h (in vivo [2]; % ID/g Heart): 0.25 %ID/g; tissue uptake at 1 h (in vivo [2]; % ID/g Intestine): 0.59 %ID/g; tissue uptake at 1 h (in vivo [2]; % ID/g Kidney): 1.2 %ID/g; tissue uptake at 1 h (in vivo [2]; % ID/g Liver): 0.29 %ID/g; tissue uptake at 1 h (in vivo [2]; % ID/g Lung): 0.15 %ID/g; tissue uptake at 1 h (in vivo [2]; % ID/g Muscle): 0.08 %ID/g; tissue uptake at 1 h (in vivo [2]; % ID/g Tumor): 0.73 %ID/g; tissue uptake at 1 h (in vivo [3]; % ID/g Bladder): 4.7 %ID/g; tissue uptake at 1 h (in vivo [3]; % ID/g Bone): 0.04 %ID/g; tissue uptake at 1 h (in vivo [3]; % ID/g Brain): 0.09 %ID/g; tissue uptake at 1 h (in vivo [3]; % ID/g Heart): 0.11 %ID/g; tissue uptake at 1 h (in vivo [3]; % ID/g Intestine): 0.33 %ID/g; tissue uptake at 1 h (in vivo [3]; % ID/g Kidney): 0.52 %ID/g; tissue uptake at 1 h (in vivo [3]; % ID/g Liver): 0.15 %ID/g; tissue uptake at 1 h (in vivo [3]; % ID/g Lung): 0.08 %ID/g; tissue uptake at 1 h (in vivo [3]; % ID/g Muscle): 0.05 %ID/g; tissue uptake at 1 h (in vivo [3]; % ID/g Tumor): 0.42 %ID/g
CC[C@H](C)[C@H](NC(=O)[C@@H](NC(=O)[C@H](CC(=O)O)NC(=O)[C@H](CC(N)=O)NC(=O)[C@H](CC(=O)O)NC(=O)CNC(=O)[C@H](CCCNC(=N)N)NC(=O)CCOCCOCCOCCOCCNC(=O)CN1CCN(CC(=O)O)CCN(CC(=O)O)CCN(CC(=O)O)CC1)C(C)C)C(=O)N[C@@H](CC(N)=O)C(=O)O [^68Ga-TM7, metal not drawn] ({DOTA-PEG4}-RGDNDVIN-OH) | – | 0.24 | 0.24 | 0.5 | 0.45 | 64.5 | 0.53 | 0.3 | 0.28 | 0.75 | –
CC[C@H](C)[C@H](NC(=O)[C@@H](NC(=O)[C@H](CC(=O)O)NC(=O)[C@H](CC(N)=O)NC(=O)CCOCCOCCOCCOCCNC(=O)CN1CCN(CC(=O)O)CCN(CC(=O)O)CCN(CC(=O)O)CC1)C(C)C)C(=O)N[C@@H](CC(N)=O)C(=O)O [^68Ga-TM5, metal not drawn] ({DOTA-PEG4}-NDVIN-OH) | – | 0.22 | 0.25 | 0.45 | 0.57 | 7.4 | 0.5 | 0.24 | 0.21 | 1.1 | –
CC[C@H](C)[C@H](NC(=O)[C@@H](NC(=O)[C@H](CC(=O)O)NC(=O)[C@H](CC(N)=O)NC(=O)[C@H](CC(=O)O)NC(=O)CNC(=O)[C@H](CCCNC(=N)N)NC(=O)CCOCCOCCOCCOCCNC(=O)CN1CCN(CC(=O)O)CCN(CC(=O)O)CCN(CC(=O)O)CC1)C(C)C)C(=O)N[C@@H](CC(N)=O)C(=O)O [TM7] ({DOTA-PEG4}-RGDNDVIN-OH) | 43.9 | – | – | – | – | – | – | – | – | – | –
